The source of these data is patent US12319703B2, “Macrocyclic fused pyrazoles as Mcl-1 inhibitors” (ASCENTAGE PHARMA (SUZHOU) CO., LTD., priority 2019, dated 2025).

Assay [1] deals with NCI-H929 cells. As to the kind of experiment: Cell viability assay (NCI-H929 cells), CCK-8. The note with it: WST, 5% FBS. Type of assay: cell-based. The method, then:
Cell Viability Assay (NCI-H929 Cells)
NCI-H929 cells were obtained from American Type Culture Collection (ATCC). Cells were maintained in the recommended culture medium (RPMI 1640) with 10% FBS and 0.05 mM BME at 37° C. and an atmosphere of 5% CO2.
The effect of Compounds on cell viability was determined using Cell Counting Kit-8 (CCK-8) assay according to the manufacturer's instructions. 95 μL of NCI-H929 cell suspension (20000 cells/well) in culture medium were seeded into 96-well plates and cultured 4 hrs. Each tested compound was serially diluted in DMSO, then 5 μL of the compound or DMSO was diluted in 95 μL medium once more. At last, 5 μL of the compound dilution was added to the corresponding well of the cell plate. After the addition of the tested compound, the cells were incubated at 37° C. in an atmosphere of 5% CO2 for 24 hrs. At the end, 10 μL of CCK-8 solution was added to each well of the plate and incubated for 1-4 hours. The plates were read at 450 nm on the microplate reader (BioTek Synergy 1MF). The readings were normalized to the vehicle cells, and the IC50 was calculated by nonlinear regression analysis using GraphPad Prism 6 software.

Assay [2] has as its system OPM-2 cells. The assay is described as follows: Cell viability assay (OPM-2 cells), CCK-8. The assay is classed as cell-based. The note with it: WST, 5% FBS, read-out: OPM2 (WST, 5% FBS). As to the method: Cell Viability Assay (OPM-2 Cells)
OPM-2 cells were obtained from Deutsche Sammlung von Mikroorganismen und Zellkulturen GmbH (DSMZ). […]
The effect of representative Compounds of the Disclosure on cell viability was determined using Cell Counting Kit-8 (CCK-8) assay (Shanghai Life iLab Bio Technology) according to the manufacturer's instructions. Each tested compound was serially diluted in culture medium, 100 μL of the compound dilution was added into 96-well plates. 100 μL of an OPM-2 cell suspension (20000 cells/well) in culture medium were seeded into the corresponding well of the plate and the cells were incubated at 37° C. in an atmosphere of 5% CO2 for 24 hours. In the next day, 20 μL of CCK-8 solution was added to each well of the plate and incubated for 4 hours.
The plates were read at 450 nm on the microplate spectrophotometer (SpectraMax plus 384, Molecular devices). The readings were normalized to the vehicle cells, and the IC50 was calculated by nonlinear regression analysis using GraphPad Prism 6 software.

In assay [3] the target is T1, Mcl-1 protein (residues 171-323) (Homo sapiens, UniProt Q07820).
T1 construct: Tag-free Mcl-1 protein (residues 171-323) was used in the FP assay
The assay is described as follows: Inhibition of Mcl-1 by fluorescence polarization (FP) competitive binding assay. The settings on record: FAM-Bid tracer 2 nM, Mcl-1 20 nM, 30 min. The method, then:
Inhibition of Mcl-1 by Fluorescence Polarization (FP) Assay.
The method used a fluorescein labelled peptide (FAM-Bid) which binds to the Mcl-1 protein leading to an increased anisotropy measured in milli-polarization (mP) values using a plate reader.
A 10-points serial dilution of each compound was prepared in DMSO and 5 μL solution was transferred into flat bottomed, 96-well back plate (final DMSO concentration 5%). 120 μL of Buffer (PBS, 0.01% BGG (Sigma Cat. #SRE0011), 0.01% Triton X-100), containing the Fluorescein labelled peptide (Final concentration 2 nM) and Mcl-1 protein (final concentration 20 nM) was then added. […] 10-points dose response curves were plotted with GraphPad software using Sigmoidal Dose-Response Model and the IC50 values were determined by nonlinear regression fitting of the competition curves.
(In general: Fluorescence polarisation rises when a labelled molecule tumbles more slowly, as on binding a larger partner.)

Each structure is given as a SMILES string. Like-named read-outs stand apart in the source and are kept apart here.

T1 sequence (Q07820 171-323): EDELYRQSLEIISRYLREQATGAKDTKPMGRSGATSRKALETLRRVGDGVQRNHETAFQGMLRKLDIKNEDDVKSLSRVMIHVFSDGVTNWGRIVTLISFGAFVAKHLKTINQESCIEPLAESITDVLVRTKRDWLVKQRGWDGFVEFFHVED

Regarding `Cn1nc2cc1CSc1cc(c3ccccc3c1)OCCCc1c(C(=O)O)n(C)c3c(c(Cl)ccc13)-c1c(nn3c1CCC3)CSC2` (atropisomer, axis not shown) [Cpd. No. 52, (R)-(Z)-1^6-chloro-1^1,6^1-dimethyl-2^5,2^6-dihydro-1^1H,2^4H,6^1H-10-oxa-4,8-dithia-1(7,3)-indola-2(3,2)-pyrrolo[1,2-b]pyrazola-6(3,5)-pyrazola-9(3,1)-naphthalenacyclotridecaphane-1^2-carboxylic acid], the IC50 was determined as 63 nM in assay [1] (24 h) and 353 nM in assay [2] (24 h).
Turning to `Cn1nc2cc1CSc1cc(c3ccccc3c1)OCCCc1c(C(=O)O)n(C)c3c(c(Cl)ccc13)-c1c(nn3c1CCC3)CSC2` (atropisomer, axis not shown) [Cpd. No. 53, (S)-(Z)-1^6-chloro-1^1,6^1-dimethyl-2^5,2^6-dihydro-1^1H,2^4H,6^1H-10-oxa-4,8-dithia-1(7,3)-indola-2(3,2)-pyrrolo[1,2-b]pyrazola-6(3,5)-pyrazola-9(3,1)-naphthalenacyclotridecaphane-1^2-carboxylic acid], the IC50 was 4400 nM in assay [1] (24 h) and 5720 nM in assay [2] (24 h).
For `Cn1nc2cc1CSc1cc(cc(C(F)(F)F)c1)OCCCc1c(C(=O)O)n(C)c3c(c(Cl)ccc13)-c1c(nn3c1COCC3)CSC2` [Cpd. No. 33, (Z)-1^6-chloro-1^1,6^1-dimethyl-9^5-(trifluoromethyl)-2^6,2^7-dihydro-11H,2^4H,6^1H-10-oxa-4,8-dithia-2(3,2)-pyrazolo[5,1-c][1,4]oxazina-1(7,3)-indola-6(3,5)-pyrazola-9(1,3)-benzenacyclotridecaphane-1^2-carboxylic acid], the IC50 is 12 nM in assay [3]; 361 nM in assay [1] (Homo sapiens, NCI-H929, 24 h); 965 nM in assay [2] (Homo sapiens, OPM-2, 24 h).
`Cc1c(Cl)cc2cc1SCc1cc(nn1C)CSCc1nn3c(c1-c1c(Cl)ccc4c(c(C(=O)O)n(C)c14)CCCO2)CCCC3` [Cpd. No. 37, (Z)-1^6,9^5-dichloro-1^1,6^1,9^6-trimethyl-2^4,2^5,2^6 2^7-tetrahydro-1^1H,6^1-10-oxa-4,8-dithia-2(3,2)-pyrazolo[1,5-a]pyridina-1(7,3)-indola-6(3,5)-pyrazola-9(1,3)-benzenacyclotridecaphane-1^2-carboxylic acid]: the IC50 stood at 38 nM in assay [3]; 535 nM in assay [1] (Homo sapiens, NCI-H929, 24 h); 1050 nM in assay [2] (Homo sapiens, OPM-2, 24 h).
Turning to `Cn1nc2cc1CSc1cc(c3ccccc3c1)OCCCc1c(C(=O)O)n(C)c3c(c(Cl)ccc13)-c1c(nn3c1CCC3)CSC2` [compound 1, (Z)-1^6-chloro-1^1,6^1-dimethyl-2^5,2^6-dihydro-1^1H,2^4H,6^1H-10-oxa-4,8-dithia-1(7,3)-indola-2(3,2)-pyrrolo[1,2-b]pyrazola-6(3,5)-pyrazola-9(3,1)-naphthalenacyclotridecaphane-1^2-carboxylic acid], the values for the IC50 in assay [3], in assay [1] (24 h) and in assay [2] (24 h) were 15 nM, 123 nM and 437 nM, respectively.
In the case of `Cn1c(C(=O)O)c2c3ccc(Cl)c(c31)-c1c(nn3c1CCC3)CSCc1coc(n1)CSc1cc(c3ccccc3c1)OCCC2` [compound 2, (Z)-1^6-chloro-1^1-methyl-2^5,2^6-dihydro-1^1H,2^4H-10-oxa-4,8-dithia-6(4,2)-oxazola-1(7,3)-indola-2(3,2)-pyrrolo[1,2-b]pyrazola-9(3,1)-naphthalenacyclotridecaphane-1^2-carboxylic acid], the IC50 in assay [3] amounted to 14 nM; in assay [1] (Homo sapiens, NCI-H929, 24 h), 287 nM; in assay [2] (Homo sapiens, OPM-2, 24 h), 1140 nM.
On to `Cn1c(C(=O)O)c2c3ccc(Cl)c(c31)-c1c(nn3c1CCC3)CSCc1csc(n1)CSc1cc(c3ccccc3c1)OCCC2` [compound 3, (Z)-1^6-chloro-1^1-methyl-2^5,2^6-dihydro-1^1H,2^4H-10-oxa-4,8-dithia-6(4,2)-thiazola-1(7,3)-indola-2(3,2)-pyrrolo[l,2-b]pyrazola-9(3,1)-naphthalenacyclotridecaphane-1^2-carboxylic acid], for which the IC50 in assay [3] is 8.7 nM; in assay [1] (Homo sapiens, NCI-H929, 24 h) it was 5110 nM; in assay [2] (Homo sapiens, OPM-2, 24 h), 6580 nM.
As for `Cn1c(C(=O)O)c2c3ccc(Cl)c(c31)-c1c(nn3c1CCC3)CSCC1=NC=C(CSc3cc(c4ccccc4c3)OCCC2)S1` [compound 4, 1^6-chloro-1^1methyl-2^5,2^6-dihydro-1^1H,2^4H-10-oxa-4,8-dithia-6(2,5)-thiazola-1(7,3)-indola-2(3,2)-pyrrolo[1,2-b]pyrazola-9(3,1)-naphthalenacyclotridecaphane-1^2-carboxylic acid], the IC50 in assay [3] amounted to 19.1 nM; in assay [2] (Homo sapiens, OPM-2, 24 h), 5300 nM.
For the compound `Cn1nc2cc1CSc1cc(c3ccccc3c1)OCCCc1c(C(=O)O)n(C)c3c(c(Cl)ccc13)-c1c(nn3c1OCC3)CSC2` [compound 6, (Z)-1^6-chloro-1^1,6^1-dimethyl-2^2,2^3-dihydro-1^1H,6^1H-10-oxa-4,8-dithia-2(7,6)-pyrazolo[5,1-b]oxazola-1(7,3)-indola-6(3,5)-pyrazola-9(3,1)-naphthalenacyclotridecaphane-1^2-carboxylic acid], the IC50 in assay [3] was determined as 15 nM; in assay [1] (Homo sapiens, NCI-H929, 24 h), 234 nM; in assay [2] (Homo sapiens, OPM-2, 24 h), 1350 nM.
For `Cn1c(C(=O)O)c2c3ccc(Cl)c(c31)-c1c(nn3c1CCC3)CSCc1cc(on1)CSc1cc(c3ccccc3c1)OCCC2` [compound 8, (Z)-1^6-chloro-1^1-methyl-2^5,2^6-dihydro-1^1H,2^4H-10-oxa-4,8-dithia-6(3,5)-isoxazola-1(7,3)-indola-2(3,2)-pyrrolo[1,2-b]pyrazola-9(3,1)-naphthalenacyclotridecaphane-1^2-carboxylic acid], the IC50 is 10.2 nM in assay [3]; 2940 nM in assay [1] (Homo sapiens, NCI-H929, 24 h); over 10000 nM in assay [2] (Homo sapiens, OPM-2, 24 h).
As for `Cn1nc2cc1CSc1cc(c3ccccc3c1)OCCCc1c(C(=O)O)n(C)c3c(c(Cl)ccc13)-c1c(nn3c1CCC3)CS(=O)(=O)C2` [compound 9, (Z)-1^6-chloro-1^1,6^1-dimethyl-2^5,2^6-dihydro-1‘H,2^4H,6^1H-10-oxa-4,8-dithia-1(7,3)-indola-2(3,2)-pyrrolo[1,2-b]pyrazola-6(3,5)-pyrazola-9(3,1)-naphthalenacyclotridecaphane-1^2-carboxylic acid 4,4-dioxide], the IC50 in assay [3] came to 13 nM; in assay [1] (Homo sapiens, NCI-H929, 24 h), 411 nM; in assay [2] (Homo sapiens, OPM-2, 24 h) it was 1170 nM.
The matching figures for `Cc1nc2oc1CSc1cc(c3ccccc3c1)OCCCc1c(C(=O)O)n(C)c3c(c(Cl)ccc13)-c1c(nn3c1CCC3)CSC2` [compound 10, 1^6-chloro-1^1,6^4-dimethyl-2^5,2^6-dihydro-1^1H,2^4H-10-oxa-4,8-dithia-6(2,5)-oxazola-1(7,3)-indola-2(3,2)-pyrrolo[1,2-naphthalenacyclotridecaphane-b]pyrazola-9(3,1)-1^2-carboxylic acid]: 10.5 nM, 1970 nM and 8810 nM.
Regarding `Cn1nc2cc1CSc1cc(c3ccccc3c1)OCCCc1c(C(=O)O)n(C)c3c(c(Cl)ccc13)-c1c(nn3c1COCC3)CSC2` [compound 12, (Z)-1^6-chloro-1^1,6^1-dimethyl-2^6,2^7-dihydro-1^1H,2^4H,6^1H-10-oxa-4,8-dithia-2(3,2)-pyrazolo[5,1-c][1,4]oxazina-1(7,3)-indola-6(3,5)-pyrazola-9(3,1)-naphthalenacyclotridecaphane-1^2-carboxylic acid], the IC50 stood at 10.9 nM in assay [3]; 81 nM in assay [1] (Homo sapiens, NCI-H929, 24 h); 532 nM in assay [2] (Homo sapiens, OPM-2, 24 h).
